In EP0517371B1, “Hair growth composition containing citric acid esters” (UNILEVER PLC, priority 1991, dated 1992):
Where a name gives a salt, the structure may show the parent alone.

Tested on: albino rats
Assay: Rat hair growth trial (plucked hair at end of G-2 anagen after topical application)
Type: in vivo
Conditions: for LENGTH (length of hair) / WT/AREA (weight of hair per unit area of skin): G-2 anagen, topical twice daily, 6 rats per group, TBC 5% by weight in vanishing cream base, minoxidil 2% by weight in 65% v/v aqueous ethanol
Procedure: The effect of esters of citric acid on hair growth was assessed using albino rats as an animal model. The rats were chosen from as few litters as possible and were each approximately 27-30 days of age at the start of the trial. Each rat was housed individually to prevent licking.
In each comparison, 6 rats were used in each group and hair growth was assessed as follows: A small patch of normal skin (3cm x 3cm) on the upper back of each rat was selected and hairs were plucked from this area at the start of the trial (G-1 telogen). Test materials or control in a vanishing cream base or an alcoholic lotion, as appropriate, were then applied twice daily until the end of the next anagen, i.e. after a further 20 days from the start of trial (G-2 anagen). Each application of lotion amounted to about 50 mg.
At the end of G2-anagen, hair was plucked again from the same dorsal area, and this was used for measurement of: • i) weight of hair per unit area of skin, • ii) length of hair, and • iii) diameter of hair measured microscopically.
This procedure was employed to compare the effect of topical application to the rat model of a known hair growth promoter, namely minoxidil and a test material as used in accordance with the invention, namely tri-n-butyl citrate.
In this experiment minoxidil was employed at a concentration of 2% by weight in 65% v/v aqueous ethanol and tri-n-butyl citrate was employed at a concentration of 5% by weight in a vanishing cream base.

[1] = end of G-2 anagen, versus control (vanishing cream base)

SMILES | LENGTH (length of hair) | WT/AREA (weight of hair per unit area of skin) | hair diameter, comparison in words [1] | length of hair, comparison in words [1] | weight of plucked hair per unit area, comparison in words [1]
CCCCOC(=O)CC(O)(CC(=O)OCCCC)C(=O)OCCCC [TBC, tri-n-butyl citrate] | 10.74 ± 1.16 mm | 17.24 ± 0.97 mg/cm2 | similar | marked increase over both control and minoxidil | marked increase over the control
Nc1cc(N2CCCCC2)nc(N)[n+]1[O-] [Minoxidil, reference compound] | 8.85 ± 0.42 mm | 16.27 ± 0.97 mg/cm2 | – | – | –
